Laboratory results reported in patent publication US20110086759A1, “CHEMICAL COMPOUNDS” (SYNGENTA CROP PROTECTION, INC., priority 2007, published 2011).

Experiments:
Type in all cases: in vivo
[1] = tested on: Solanum nigrum (SOLNI); assay: Pre-emergence biological efficacy, glasshouse pot test; conditions: 312 h, pre-emergence, rate 1,000 g/ha, evaluated after 13 days (100=total damage to plant; 0=no damage), read-out: Percentage damage caused to weed species, SOLNI
In short: (§1)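 Visual phytotoxicity (0 no damage, 100 total damage) assessed 13 d after treatment. Soil-sown pots sprayed one day post-sowing; dose 1000 or 250 g/ha; formulation in acetone/water 50:50, 0.5% Tween 20.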

[2] = tested on: Amaranthus retoflexus (AMARE); assay: as above; conditions: Amaranthus retroflexus, 312 h; pre-emergence, rate 1,000 g/ha, evaluated after 13 days (100=total damage to plant; 0=no damage); read-out: Percentage damage caused to weed species, AMARE
In short: as §1

[3] = tested on: Setaria faberi (SETFA); assay: as above; conditions: 312 h, pre-emergence, rate 1,000 g/ha, evaluated after 13 days (100=total damage to plant; 0=no damage), read-out: Percentage damage caused to weed species, SETFA
In short: as §1

[4] = tested on: Echinochloa crus-galli (ECHCG); assay: as above; conditions: 312 h, pre-emergence, rate 1,000 g/ha, evaluated after 13 days (100=total damage to plant; 0=no damage), read-out: Percentage damage caused to weed species, ECHCG
In short: as §1

[5] = tested on: Alopecurus myosuroides (ALOMY); assay: as above; conditions: 312 h, pre-emergence, rate 1,000 g/ha, evaluated after 13 days (100=total damage to plant; 0=no damage), read-out: Percentage damage caused to weed species, ALOMY
In short: as §1

[6] = tested on: Ipomea hederaceae (IPOHE); assay: as above; conditions: Ipomoea hederacea, 312 h; pre-emergence, rate 1,000 g/ha, evaluated after 13 days (100=total damage to plant; 0=no damage); read-out: Percentage damage caused to weed species, IPOHE
In short: as §1

[7] = tested on: Solanum nigrum (SOLNI); assay: Post-emergence biological efficacy, glasshouse pot test; conditions: 312 h, Rate 1,000 g/ha, post-emergence spray, evaluated after 13 days (100=total damage to plant; 0=no damage to plant), read-out: Percentage damage caused to weed species, post-emergence, SOLNI
In short: (§2)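 Pot-grown weeds were sprayed 8 days after sowing with test compound in acetone/water (50:50) with 0.5% Tween 20 at 1000 or 250 g/ha. Glasshouse at 24/16° C day/night, 14 h light, 65% humidity. Damage scored 0-100 (100 = total damage) after 13 days.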

[8] = tested on: Amaranthus retoflexus (AMARE); assay: as above; conditions: Amaranthus retroflexus, 312 h; Rate 1,000 g/ha; post-emergence spray; evaluated after 13 days (100=total damage to plant; 0=no damage to plant); read-out: Percentage damage caused to weed species, post-emergence, AMARE
In short: as §2

[9] = tested on: Setaria faberi (SETFA); assay: as above; conditions: 312 h, Rate 1,000 g/ha, post-emergence spray, evaluated after 13 days (100=total damage to plant; 0=no damage to plant), read-out: Percentage damage caused to weed species, post-emergence, SETFA
In short: as §2

[10] = tested on: Echinochloa crus-galli (ECHCG); assay: as above; conditions: 312 h, Rate 1,000 g/ha, post-emergence spray, evaluated after 13 days (100=total damage to plant; 0=no damage to plant), read-out: Percentage damage caused to weed species, post-emergence, ECHCG
In short: as §2

[11] = tested on: Alopecurus myosuroides (ALOMY); assay: as above; conditions: 312 h, Rate 1,000 g/ha, post-emergence spray, evaluated after 13 days (100=total damage to plant; 0=no damage to plant), read-out: Percentage damage caused to weed species, post-emergence, ALOMY
In short: as §2

[12] = tested on: Ipomea hederaceae (IPOHE); assay: as above; conditions: Ipomoea hederacea, 312 h; Rate 1,000 g/ha; post-emergence spray; evaluated after 13 days (100=total damage to plant; 0=no damage to plant); read-out: Percentage damage caused to weed species, post-emergence, IPOHE
In short: as §2

COC(=O)c1nc(-c2ccc(C)cc2F)nc(NCc2ccco2)c1Cl [Compound 257-48, 5-Chloro-2-(2-fluoro-4-methylphenyl)-4-(furan-2-ylmethylamino)-6-methoxycarbonyl-pyrimidine]
pest or weed control at 1000 g/ha [1]: 10% | pest or weed control at 1000 g/ha [2]: 90% | pest or weed control at 1000 g/ha [3]: 10% | pest or weed control at 1000 g/ha [4]: 40% | pest or weed control at 1000 g/ha [5]: 20% | pest or weed control at 1000 g/ha [6]: 30% | pest or weed control at 1000 g/ha [7]: 40% | pest or weed control at 1000 g/ha [8]: 100% | pest or weed control at 1000 g/ha [9]: 0% | pest or weed control at 1000 g/ha [10]: 10% | pest or weed control at 1000 g/ha [11]: 20% | pest or weed control at 1000 g/ha [12]: 60%

COC(=O)c1nc(-c2ccc(OC)cc2F)nc(NCc2ccco2)c1Cl [Compound 258-48, 5-Chloro-2-(2-fluoro-4-methoxyphenyl)-4-(furan-2-ylmethyl-amino)-6-methoxy-carbonylpyrimidine]
pest or weed control at 1000 g/ha [1]: 0% | pest or weed control at 1000 g/ha [2]: 70% | pest or weed control at 1000 g/ha [3]: 20% | pest or weed control at 1000 g/ha [4]: 0% | pest or weed control at 1000 g/ha [5]: 30% | pest or weed control at 1000 g/ha [6]: 30% | pest or weed control at 1000 g/ha [7]: 50% | pest or weed control at 1000 g/ha [8]: 90% | pest or weed control at 1000 g/ha [9]: 40% | pest or weed control at 1000 g/ha [10]: 0% | pest or weed control at 1000 g/ha [11]: 10% | pest or weed control at 1000 g/ha [12]: 30%

COC(=O)c1nc(-c2ccc(OC)c(OC)c2)nc(NCc2ccco2)c1Cl [Compound 260-48, 5-Chloro-2-(3,4-dimethoxyphenyl)-4-(furan-2-ylmethyl-amino)-6-methoxy-carbonylpyrimidine]
pest or weed control at 1000 g/ha [1]: 0% | pest or weed control at 1000 g/ha [2]: 0% | pest or weed control at 1000 g/ha [3]: 0% | pest or weed control at 1000 g/ha [4]: 0% | pest or weed control at 1000 g/ha [5]: 0% | pest or weed control at 1000 g/ha [6]: 0% | pest or weed control at 1000 g/ha [7]: 30% | pest or weed control at 1000 g/ha [8]: 20% | pest or weed control at 1000 g/ha [9]: 0% | pest or weed control at 1000 g/ha [10]: 0% | pest or weed control at 1000 g/ha [11]: 0% | pest or weed control at 1000 g/ha [12]: 0%

COC(=O)c1nc(-c2ccc(Cl)c(N(C)C)c2F)nc(NCc2ccco2)c1Cl [Compound 261-48, 5-Chloro-2-(4-chloro-3-dimethylamino-2-fluorophenyl)-4-(furan-2-yl-methyl-amino)-6-methoxy-carbonylpyrimidine]
pest or weed control at 1000 g/ha [1]: 40% | pest or weed control at 1000 g/ha [2]: 100% | pest or weed control at 1000 g/ha [3]: 90% | pest or weed control at 1000 g/ha [4]: 90% | pest or weed control at 1000 g/ha [5]: 50% | pest or weed control at 1000 g/ha [6]: 30% | pest or weed control at 1000 g/ha [7]: 80% | pest or weed control at 1000 g/ha [8]: 100% | pest or weed control at 1000 g/ha [9]: 90% | pest or weed control at 1000 g/ha [10]: 70% | pest or weed control at 1000 g/ha [11]: 50% | pest or weed control at 1000 g/ha [12]: 60%

COC(=O)c1nc(-c2ccc(Cl)s2)nc(NC2CC2)c1Cl [Compound 262-30, 5-Chloro-2-(5-chloro-thiophen-2-yl)-4-cyclopropylamino-6-methoxycarbonyl-pyrimidine]
pest or weed control at 1000 g/ha [1]: 0% | pest or weed control at 1000 g/ha [2]: 0% | pest or weed control at 1000 g/ha [3]: 0% | pest or weed control at 1000 g/ha [4]: 0% | pest or weed control at 1000 g/ha [5]: 0% | pest or weed control at 1000 g/ha [6]: 0% | pest or weed control at 1000 g/ha [7]: 90% | pest or weed control at 1000 g/ha [8]: 80% | pest or weed control at 1000 g/ha [9]: 10% | pest or weed control at 1000 g/ha [10]: 10% | pest or weed control at 1000 g/ha [11]: 0% | pest or weed control at 1000 g/ha [12]: 50%

COC(=O)c1nc(-c2ccc(Cl)s2)nc(NCc2ccco2)c1Cl [Compound 262-48, 5-Chloro-2-(5-chlorothiophen-2-yl)-4-(furan-2-yl-methylamino)-6-methoxycarbonyl-pyrimidine]
pest or weed control at 1000 g/ha [1]: 20% | pest or weed control at 1000 g/ha [2]: 80% | pest or weed control at 1000 g/ha [3]: 0% | pest or weed control at 1000 g/ha [4]: 0% | pest or weed control at 1000 g/ha [5]: 0% | pest or weed control at 1000 g/ha [6]: 0% | pest or weed control at 1000 g/ha [7]: 80% | pest or weed control at 1000 g/ha [8]: 100% | pest or weed control at 1000 g/ha [9]: 0% | pest or weed control at 1000 g/ha [10]: 20% | pest or weed control at 1000 g/ha [11]: 20% | pest or weed control at 1000 g/ha [12]: 60%

O=C(NCc1ccccc1)c1nc(C2CC2)nc(NCc2ccccc2)c1Cl [Compound 265-1, 5-chloro-2-cyclopropyl-4-phenylmethylamino-6-phenylmethylaminocarbonyl pyrimidine]
pest or weed control at 1000 g/ha [1]: 10% | pest or weed control at 1000 g/ha [2]: 30% | pest or weed control at 1000 g/ha [3]: 0% | pest or weed control at 1000 g/ha [4]: 0% | pest or weed control at 1000 g/ha [5]: 0% | pest or weed control at 1000 g/ha [6]: 0% | pest or weed control at 1000 g/ha [7]: 50% | pest or weed control at 1000 g/ha [8]: 80% | pest or weed control at 1000 g/ha [9]: 0% | pest or weed control at 1000 g/ha [10]: 0% | pest or weed control at 1000 g/ha [11]: 10% | pest or weed control at 1000 g/ha [12]: 70%

O=C(NCc1ccco1)c1nc(C2CC2)nc(NCc2ccco2)c1Cl [Compound 265-3, 5-Chloro-2-cyclopropyl-4-(furan-2-ylmethylamino)-6-(furan-2-yl-methylamino-carbonyl)-pyrimidine]
pest or weed control at 1000 g/ha [1]: 60% | pest or weed control at 1000 g/ha [2]: 60% | pest or weed control at 1000 g/ha [3]: 40% | pest or weed control at 1000 g/ha [4]: 30% | pest or weed control at 1000 g/ha [5]: 20% | pest or weed control at 1000 g/ha [6]: 90% | pest or weed control at 1000 g/ha [7]: 70% | pest or weed control at 1000 g/ha [8]: 70% | pest or weed control at 1000 g/ha [9]: 20% | pest or weed control at 1000 g/ha [10]: 30% | pest or weed control at 1000 g/ha [11]: 20% | pest or weed control at 1000 g/ha [12]: 70%

O=C(NCc1cccs1)c1nc(C2CC2)nc(NCc2cccs2)c1Cl [Compound 265-4, 5-Chloro-2-cyclopropyl-4-(thiophen-2-ylmethylamino)-6-(thiophen-2-yl-methylamino-carbonyl)-pyrimidine]
pest or weed control at 1000 g/ha [1]: 0% | pest or weed control at 1000 g/ha [2]: 20% | pest or weed control at 1000 g/ha [3]: 0% | pest or weed control at 1000 g/ha [4]: 0% | pest or weed control at 1000 g/ha [5]: 0% | pest or weed control at 1000 g/ha [6]: 0% | pest or weed control at 1000 g/ha [7]: 50% | pest or weed control at 1000 g/ha [8]: 50% | pest or weed control at 1000 g/ha [9]: 20% | pest or weed control at 1000 g/ha [10]: 20% | pest or weed control at 1000 g/ha [11]: 20% | pest or weed control at 1000 g/ha [12]: 50%

Cc1c(NCC2CC2)nc(C2CC2)nc1OCC(=O)NCC1CC1 [Compound 266-20, 2-cyclopropyl-4-cyclopropylmethylamino-6-cyclopropylmethylaminocarbonylmethoxy-5-methylpyrimidine]
pest or weed control at 1000 g/ha [1]: 50% | pest or weed control at 1000 g/ha [2]: 100% | pest or weed control at 1000 g/ha [3]: 0% | pest or weed control at 1000 g/ha [4]: 0% | pest or weed control at 1000 g/ha [5]: 0% | pest or weed control at 1000 g/ha [6]: 40% | pest or weed control at 1000 g/ha [7]: 80% | pest or weed control at 1000 g/ha [8]: 90% | pest or weed control at 1000 g/ha [9]: 0% | pest or weed control at 1000 g/ha [10]: 0% | pest or weed control at 1000 g/ha [11]: 0% | pest or weed control at 1000 g/ha [12]: 70%
